# Earlier results, collected in PubChem BioAssay AID1259409 (Chemical Carcinogenesis Research Information System (CCRIS), 2018).
# System: rodent chemically induced tumor inhibition, incidence and multiplicity
# Assay: CCRIS tumor inhibitor studies
# Conditions: Dose [Inhibitor]: 0, Species: RAT, Strain/Sex: F344/MALE; for tumour outcome (control, treated, inhibition, significance): Route [Inhibitor]: ORAL, Promoter: NONE USED
Structure (SMILES),"tumour outcome (control, treated, inhibition, significance) (Carcinogen: AZOXYMETHANE (25843-45-2), 500 PPM IN DIET FOR 4 WK, BEGINNING 1 WK BEFORE THE FIRST CARCINOGEN DOSE (STUDY DURATION: 38 WK), Target Tissue: Type of Lesion: LARGE INTESTINE: ADENOCARCINOMA, Dose [Carcinogen]: 15 MG/KG BW 1 INJECTION/WK FOR 3 WK)","tumour outcome (control, treated, inhibition, significance) (Carcinogen: AZOXYMETHANE (25843-45-2), 500 PPM IN DIET FOR 4 WK, BEGINNING 1 WK BEFORE THE FIRST CARCINOGEN DOSE (STUDY DURATION: 38 WK), Target Tissue: Type of Lesion: LARGE INTESTINE: ADENOMA, Dose [Carcinogen]: 15 MG/KG BW 1 INJECTION/WK FOR 3 WK)","tumour outcome (control, treated, inhibition, significance) (Carcinogen: AZOXYMETHANE (25843-45-2), 500 PPM IN DIET FOR 4 WK, BEGINNING 1 WK BEFORE THE FIRST CARCINOGEN DOSE (STUDY DURATION: 38 WK), Target Tissue: Type of Lesion: SMALL INTESTINE: ADENOCARCINOMA, Dose [Carcinogen]: 15 MG/KG BW 1 INJECTION/WK FOR 3 WK)","tumour outcome (control, treated, inhibition, significance) (Carcinogen: AZOXYMETHANE (25843-45-2), 500 PPM IN DIET FOR 4 WK, BEGINNING 1 WK BEFORE THE FIRST CARCINOGEN DOSE (STUDY DURATION: 38 WK), Target Tissue: Type of Lesion: SMALL INTESTINE: ADENOMA, Dose [Carcinogen]: 15 MG/KG BW 1 INJECTION/WK FOR 3 WK)","tumour outcome (control, treated, inhibition, significance) (Carcinogen: AZOXYMETHANE (25843-45-2), 500 PPM IN DIET FOR 34 WK, BEGINNING 1 WK AFTER THE LAST CARCINOGEN DOSE (STUDY DURATION: 38 WK), Target Tissue: Type of Lesion: LARGE INTESTINE: ADENOCARCINOMA, Dose [Carcinogen]: 15 MG/KG BW 1 INJECTION/WK FOR 3 WK)","tumour outcome (control, treated, inhibition, significance) (Carcinogen: AZOXYMETHANE (25843-45-2), 500 PPM IN DIET FOR 34 WK, BEGINNING 1 WK AFTER THE LAST CARCINOGEN DOSE (STUDY DURATION: 38 WK), Target Tissue: Type of Lesion: LARGE INTESTINE: ADENOMA, Dose [Carcinogen]: 15 MG/KG BW 1 INJECTION/WK FOR 3 WK)","tumour outcome (control, treated, inhibition, significance) (Carcinogen: AZOXYMETHANE (25843-45-2), 500 PPM IN DIET FOR 34 WK, BEGINNING 1 WK AFTER THE LAST CARCINOGEN DOSE (STUDY DURATION: 38 WK), Target Tissue: Type of Lesion: SMALL INTESTINE: ADENOCARCINOMA, Dose [Carcinogen]: 15 MG/KG BW 1 INJECTION/WK FOR 3 WK)","tumour outcome (control, treated, inhibition, significance) (Carcinogen: AZOXYMETHANE (25843-45-2), 500 PPM IN DIET FOR 34 WK, BEGINNING 1 WK AFTER THE LAST CARCINOGEN DOSE (STUDY DURATION: 38 WK), Target Tissue: Type of Lesion: SMALL INTESTINE: ADENOMA, Dose [Carcinogen]: 15 MG/KG BW 1 INJECTION/WK FOR 3 WK)","outcome (Carcinogen: DIETHYLNITROSAMINE, 0.005, 0.5, 500 PPM FOR 11 OR 43 WK BEGINNING 1 WK AFTER CARCINOGEN (STUDY DURATION: 45 WK), 0.005, 0.5, 500 PPM FOR 11 OR 43 WK BEGINNING 1 WK AFTER CARCINOGEN (STUDY DURATION: 45 WK), Route [Inhibitor]: DIET, Target Tissue: Type of Lesion: LIVER: HEPATOCELLULAR CARCINOMA, HEPATOCELLULAR ADENOMA, Dose [Carcinogen]: 100 MG/KG BW TWICE AT 1 WK INTERVALS (STUDY DURATION: 45 WK))","tumour outcome (control, treated, inhibition, significance) (Carcinogen: AZOXYMETHANE, 25843-45-2, 0.02% IN DIET IN WK 1-3 OF STUDY FOLLOWED BY BASAL DIET FOR DURATION OF STUDY (STUDY DURATION: 1 YR), Target Tissue: Type of Lesion: LARGE INTESTINE: ADENOCARCINOMA, Dose [Carcinogen]: 15 MG/KG BW 1/WK IN WK 1 AND 2 OF STUDY)","tumour outcome (control, treated, inhibition, significance) (Carcinogen: AZOXYMETHANE, 25843-45-2, 0.02% IN DIET IN WK 1-3 OF STUDY FOLLOWED BY BASAL DIET FOR DURATION OF STUDY (STUDY DURATION: 1 YR), Target Tissue: Type of Lesion: LARGE INTESTINE: ADENOMA, Dose [Carcinogen]: 15 MG/KG BW 1/WK IN WK 1 AND 2 OF STUDY)","tumour outcome (control, treated, inhibition, significance) (Carcinogen: AZOXYMETHANE, 25843-45-2, 0.02% IN DIET IN WK 1-3 OF STUDY FOLLOWED BY BASAL DIET FOR DURATION OF STUDY (STUDY DURATION: 1 YR), Target Tissue: Type of Lesion: SMALL INTESTINE: ADENOCARCINOMA, Dose [Carcinogen]: 15 MG/KG BW 1/WK IN WK 1 AND 2 OF STUDY)"
C=C(C)[C@H]1Cc2c(ccc3c2O[C@@H]2COc4cc(OC)c(OC)cc4[C@@H]2C3=O)O1,"9/15 (60%), 6/19 (32%), 47%, not significant","4/15 (27%), 2/19 (11%), 59%, not significant","4/15 (27%), 1/19 (5%), 81%, not significant","1/15 (7%), 0/19 (0%), 100%, not significant","9/15 (60%), 3/16 (19%), 68%, p= 0.0226","4/15 (27%), 1/16 (6%), 78%, not significant","4/15 (27%), 1/16 (6%), 78%, not significant","1/15 (7%), 0/16 (0%), 100%, not significant",60; 35; 65; 100: 55; 65; 50; 100,,,
CCCCCCCc1c(O)cc(CC=C(C)C)c(O)c1C=O,,,,,,,,,,"13/27 (48%), 6/30 (20%), 58%, not significant","6/27 (22%), 4/30 (13%), 41%, not significant","6/27 (22%), 5/30 (17%), 23%, not significant"
